Measurements published in patent US10801076B2, “Influenza A virus variants” (Vertex Pharmaceuticals Incorporated, priority 2014, dated 2020).
pEC50: −log10 of the molar value.

System: A/Wisconsin/67/2005-p1
Test: microbe, parasite or virus in culture
Type: cell-based, influenza A virus (H3N2)
Details: Influenza A virus, MDCK, 72 h, read-out: Sensitivity to Compound 1 (EC50)

O=C(O)[C@H]1C2CCC(CC2)[C@@H]1Nc1nc(-c2c[nH]c3ncc(F)cc23)ncc1F [Compound 1]
pEC50: 8.70
